As usually defined, the Emax is the maximal effect, on the per cent scale that the assay sets. By EC50 is commonly meant the concentration at which the effect is half-maximal. Read a low EC50 as a more potent agent.

Experiment [1] deals with T1, human MC1r (Homo sapiens, UniProt Q01726). The experiment can be described thus: Test 3: receptor efficacy, cAMP enzyme immunoassay in stably transfected HEK cells expressing the human MC1r. On the set-up: expressed in transfected cells. In kind it is cell-based. The conditions noted are these: for Emax: HEK293, IBMX present, read-out: maximal efficacy Emax (max efficacy expressed as percent of αMSH); for EC50: IBMX present. The text has this: The immune modulating effects of melanocortins are mediated through MC1r and/or MC3r stimulation on immune competent cells in tissues, organs and plasma. MC1r and/or MC3r are expressed in immune competent cells including monocytes, macrophages, neutrophils t-cells and dendritic cells. Stimulation of the MCr1 and/or MC3r is associated with attenuation of cytokine production and activation of pro-resolving effects. The binding affinity and the receptor efficacy (alternative expression is potency) of a given melanocortin together, in some embodiments, makes up the overall efficacy of a given compound.
Alternatively MCR1 receptor efficacy was tested in stably transfected HEK cells expressing the human MC1r. Cells were grown in Dulbecco's modified Eagle's medium 1885 supplemented with 10% fetal calf serum, 2 mm glutamine, and 0.01 mg/ml gentamicin. The expression plasmids containing the cDNAs encoding the wild-type or the mutated receptors were expressed after transfection according to the calcium phosphate precipitation method. The cells were kept frozen until the experiments where the cells was grown in RPMI 1640 medium supplemented with 2 mm 1-glutamine adjusted to contain 1.5 g/liter sodium bicarbonate, 4.5 g/liter glucose, 10 mm HEPES, 1.0 mm sodium pyruvate, and 10% fetal bovine serum.
Cells (2.5×10^5 cells per well) were incubated for 15 min at 37° C. in 1 ml of freshly prepared binding buffer supplemented with 5.10-4 M of the non-specific phosphodiesterase inhibitor 3-Isobutyl-1-methylxanthine (IBMX), 40 μg/ml bacitracin, and various concentrations of test compound. After incubation, cells were placed on ice, medium was removed, and cells lysed. Measurement of cAMP in the samples was conducted by use of a commercial cAMP Enzyme Immunoassay kit from Cayman Chemicals (Cat. No 581001). All cAMP concentrations were expressed relative to the total number of cells in the individual samples.

Experiment [2] has as its target T1, human MC1r. Kind of experiment: Test 2: receptor efficacy, cAMP production (HTRF) in CHO-K1 cells expressing MC1r. The conditions noted are these: nM of cAMP, IBMX 1 mM.
Description: CHO-Kl cells expressing either the MC1r or the MC3r grown in media without antibiotic were detached by gentle flushing with PBS-EDTA (5 mM EDTA), recovered by centrifugation and resuspended in assay buffer (KRH: 5 mM KCl, 1.25 mM MgSO4, 124 mM NaCl, 25 mM HEPES, 13.3 mM Glucose, 1.25 mM KH2PO4, 1.45 mM CaC12, 0.5 g/1 BSA).
12 μl of cells were mixed with 12 μl of the test compound at increasing concentrations in 96 wells plates and then incubated 30 min at room temperature. cAMP production was determined after addition of a lysis buffer and 1 hour incubation, by use of competitive immunoassay using cryptate-labeled anti-cAMP and d2-labeled cAMP (HTRF kit from CisBio) with Delta F percentage values calculated according to the manufacturer specification. Dose response curves were performed in parallel with test compounds, and reference compounds.
The HTRF technology is a titration assay based on a competition between labeled cAMP (exogenous) and cAMP produced by the cell after activation of the MCr. The dynamic range of the assay was 3-4 fold meaning that the linear range (which enables conversion from raw data to nM of cAMP) is within that range.
Data is presented as mean values.
Experiment [3] concerns normal human lung fibroblasts (NHLF). The conditions noted are these: TGFβ1-induced NHLF, at higher doses; U.S. provisional application 61/785,631; cited from earlier work.

T1 sequence (Q01726 whole entry): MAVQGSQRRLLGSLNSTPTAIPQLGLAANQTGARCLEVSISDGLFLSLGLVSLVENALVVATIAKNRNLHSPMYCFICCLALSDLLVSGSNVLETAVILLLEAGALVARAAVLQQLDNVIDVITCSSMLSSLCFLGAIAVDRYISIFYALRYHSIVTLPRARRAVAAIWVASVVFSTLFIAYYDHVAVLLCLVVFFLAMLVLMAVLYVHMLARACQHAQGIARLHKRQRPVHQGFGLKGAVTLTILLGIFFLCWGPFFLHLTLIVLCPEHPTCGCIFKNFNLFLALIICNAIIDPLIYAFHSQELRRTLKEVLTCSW

Turning to `CCCC[C@H](NC(=O)[C@H](CO)NC(=O)[C@H](Cc1ccc(O)cc1)NC(=O)[C@H](CO)NC(=O)[C@H](CCCCN)NC(=O)[C@H](CCCCN)NC(=O)[C@H](CCCCN)NC(=O)[C@H](CCCCN)NC(=O)[C@H](CCCCN)NC(=O)[C@H](CCCCN)NC(C)=O)C(=O)N[C@@H](CCC(=O)O)C(=O)N[C@@H](Cc1c[nH]cn1)C(=O)N[C@H](Cc1ccccc1)C(=O)N[C@@H](CCCNC(=N)N)C(=O)N[C@@H](Cc1c[nH]c2ccccc12)C(=O)NCC(=O)N[C@@H](CCCCN)C(=O)N1CCC[C@H]1C(=O)N[C@H](C(N)=O)C(C)C` [Ac(Lys)6-NDP-αMSH, Ac(Lys)6-Ser-Tyr-Ser-Nle Glu-His-(D-Phe)-Arg-Trp-Gly-Lys-Pro-Val-NH2], at human MC1r [1], the Emax was 62 ± 8% and the response was half-maximal at 1.35 nM (EC50).

For `CSCC[C@H](NC(=O)[C@H](CO)NC(=O)[C@H](Cc1ccc(O)cc1)NC(=O)[C@H](CO)NC(=O)[C@H](CCCCN)NC(=O)[C@H](CCCCN)NC(=O)[C@H](CCCCN)NC(=O)[C@H](CCCCN)NC(=O)[C@H](CCCCN)NC(=O)[C@H](CCCCN)NC(C)=O)C(=O)N[C@@H](CCC(=O)O)C(=O)N[C@@H](Cc1c[nH]cn1)C(=O)N[C@@H](Cc1ccccc1)C(=O)N[C@@H](CCCNC(=N)N)C(=O)N[C@@H](Cc1c[nH]c2ccccc12)C(=O)NCC(=O)N[C@@H](CCCCN)C(=O)N1CCC[C@H]1C(=O)N[C@H](C(N)=O)C(C)C` [Ac(Lys)6-αMSH], at human MC1r [1], the Emax is 72 ± 5% and the response was half-maximal at 2.12 nM (EC50). Also, at human MC1r [2], the “maximal efficacy (Emax)” value is reported as roughly 3 nM.

As to `CSCC[C@H](NC(=O)[C@H](CO)NC(=O)[C@H](Cc1ccc(O)cc1)NC(=O)[C@H](CO)NC(=O)[C@H](CCCCNC(=O)[C@H](CCCCN)NC(=O)[C@H](CCCCN)NC(C)=O)NC(C)=O)C(=O)N[C@@H](CCC(=O)O)C(=O)N[C@@H](Cc1c[nH]cn1)C(=O)N[C@@H](Cc1ccccc1)C(=O)N[C@@H](CCCNC(=N)N)C(=O)N[C@@H](Cc1c[nH]c2ccccc12)C(=O)NCC(=O)N[C@@H](CCCCN)C(=O)N1CCC[C@H]1C(=O)N[C@H](C(N)=O)C(C)C` [α-MSH analogue #1], on human MC1r [2], the “maximal efficacy (Emax)” value is given as roughly 3 nM.

On to “ACTH: Adrenocorticotropic hormone, the native ligand to the type 2 receptor (MC2r) (SYSMEHFRWGKPVGKKRRPVKVYPNGAEDESAEAFPLEF; Corticotropin; UniProt P01189 138-176, looked up)”, for which the “effect on ECM collagen” value in experiment [3] was “statistically significant reduction in ECM collagen”.

These data come from US20150297672A1, “Alpha- and gamma-MSH analogues” (TXP Pharma GmbH, priority 2014, published 2015).
